Source: PubChem BioAssay (NCI)
“And” between values parts separate entries of the source, which are not always exact repeats. Equal entries are not always repeated.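 Tested at 5 concentrations; 48 h exposure; 96-well plates; endpoints linearly interpolated, else capped at highest concentration. The concentration for 50% growth inhibition is given as GI50. At the TGI there is no net growth.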

Tests used:
Test in all cases: growth of human tumour cells (NCI), 48 h
SK-MEL-5 melanoma = tested on: SK-MEL-5 melanoma
SNB-19 CNS = tested on: SNB-19 CNS
HS 578T breast = tested on: HS 578T breast
U251 CNS = tested on: U251 CNS
OVCAR-3 ovarian = tested on: OVCAR-3 ovarian
UACC-62 melanoma = tested on: UACC-62 melanoma
NCI-H522 lung = tested on: NCI-H522 lung

Row | SMILES | TGI (SK-MEL-5 melanoma) | TGI (SNB-19 CNS) | TGI (HS 578T breast) | TGI (U251 CNS) | TGI (OVCAR-3 ovarian) | TGI (UACC-62 melanoma) | GI50 (SK-MEL-5 melanoma) | GI50 (SNB-19 CNS) | GI50 (HS 578T breast) | GI50 (U251 CNS) | GI50 (OVCAR-3 ovarian) | GI50 (UACC-62 melanoma) | GI50 (NCI-H522 lung) | TGI (NCI-H522 lung)
1 | O=C1C(c2ccccc2)=[N+]([O-])c2ccccc21 | 23.3 µM | 37.5 µM | 82.9 µM | 28.7 µM | 29.1 µM | 29.5 µM | – | – | – | – | – | – | – | –
2 | O=C(O)c1ccc2c(c1)CCCC(c1ccc(Cl)cc1Cl)=C2c1ccc(O[C@H]2CCN(CCCF)C2)cc1 | 23.2 µM | 26.4 µM | 31.8 µM | 25.2 µM | 24.7 µM | 26.3 µM | 10.8 µM | 12 µM | 12.9 µM | 10.1 µM | 12.1 µM | 12.7 µM | – | –
3 | C=CC(=O)Nc1cc2c(Nc3ccc(F)c(Cl)c3)ncnc2cc1OCCCN1CCOCC1 | 13.3 µM and > 10 µM | 14.7 µM and > 10 µM | 7.21 µM and > 10 µM | 14.9 µM and > 10 µM | 4.63 µM and > 8.9 µM | 4.48 µM and > 7.71 µM | 3.3 µM and > 7.32 µM | 2.53 µM and > 6.7 µM | 2.05 µM and 2.21 µM | 3.57 µM and > 6.22 µM | 1.52 µM and 1.3 µM | 1.77 µM and 2.19 µM | 0.546 µM and 0.119 µM | 2.37 µM and 1.98 µM
4 | NC(N)=NCCC1OC(=O)C2=C1c1c(O)ccc3nccc(c13)O2 (configuration not stated) | > 100 µM | > 100 µM | > 100 µM | > 100 µM | > 100 µM | > 100 µM | 62.1 µM | 50.5 µM | > 100 µM | 56.7 µM | > 100 µM | > 100 µM | > 100 µM | > 100 µM
5 | CCOc1cc(/C=N\Nc2nnc(C)n2N)c(C)cc1N(CCCl)CCCl | 1.05 µM | > 45.7 µM | 13.1 µM | > 28.5 µM | 38.6 µM | 15.3 µM | 0.259 µM | 1.28 µM | 1.52 µM | 0.747 µM | 0.737 µM | 0.525 µM | 0.461 µM | 5.8 µM
6 | COc1ccc2[nH]c(O)c(C(=Nc3ccc(N(C)C(=O)CN4CCN(C)CC4)cc3)c3ccccc3)c2c1 | 3.43 µM | 10.7 µM | 4.67 µM | 5.27 µM | 7.31 µM | 16.4 µM | 1.75 µM | 3.72 µM | 1.09 µM | 1.84 µM | 2.9 µM | 5.01 µM | 2.52 µM | 8.96 µM
7 | O=C(O)C1CCCCC1C(=O)O.[NH-]C1CCC1.[NH2-].[Pt+2] (configuration not stated) | 12.5 µM | > 100 µM | 57 µM | > 100 µM | 30.4 µM | 23.6 µM | 3.36 µM | > 100 µM | 19.3 µM | 58 µM | 15.8 µM | 11.4 µM | 7.21 µM | > 100 µM
8 | CCOC(=O)/C=C/C1=C(c2cccs2)c2ccccc2CC1 | 31.8 µM | > 100 µM | 99.1 µM | 39.6 µM | > 100 µM | 40.9 µM | 16.8 µM | 30.9 µM | 28.5 µM | 19.7 µM | 29.5 µM | 18.7 µM | 24.3 µM | 63.6 µM
9 | CCn1c2ccc(O)cc2c2c(C)c3c[n+](C)ccc3c(C)c21 | 10.8 µM | 6.88 µM | 4.98 µM | 9.72 µM | 32.4 µM | 22.8 µM | 2.27 µM | 0.272 µM | 0.509 µM | 0.307 µM | 3.59 µM | 2.05 µM | 1.46 µM | 10.4 µM
10 | COc1cc2ncnc(Nc3ccc(F)c(Cl)c3)c2cc1NC(=O)/C=C/CN1CCCCC1 | 3.13 µM and 3.06 µM | 17 µM and > 10 µM | 19.6 µM and 5.6 µM | 3.26 µM and 4.27 µM | 2.45 µM and 3.24 µM | 3.02 µM and 3.23 µM | 1.61 µM and 1.66 µM | 2.04 µM and 1.86 µM | 2.01 µM and 0.921 µM | 1.46 µM and 1.87 µM | 1.14 µM and 1.21 µM | 1.61 µM and 1.73 µM | 0.0296 µM and 0.00694 µM | 1.64 µM and 1.89 µM
11 | Cc1sc2nc3c4ccccc4c(NCCCN(C)C)nn3c(=O)c2c1C | 9.8 µM | 29.5 µM | 17.5 µM | 20 µM | 24.3 µM | – | 3.01 µM | 15.9 µM | 3.15 µM | 6.66 µM | 11.3 µM | – | 12.4 µM | 28.8 µM
12 | COc1ccc(-c2ccc(-c3ccc(C(=N)N)cn3)o2)cc1 | 14.1 µM | 24.6 µM | 36.7 µM | 17.4 µM | 21.6 µM | 22.9 µM | 3.43 µM | 11.7 µM | 10.9 µM | 4.7 µM | 8.9 µM | 10.3 µM | 6.8 µM | 20.7 µM
13 | COc1ccccc1/C=C/C(=O)c1ccccc1 | 25.7 µM | 26.4 µM | > 25.5 µM | 15 µM | 15.2 µM | 18.4 µM | 12.7 µM | 12.7 µM | 12.1 µM | 3.69 µM | 5.92 µM | 5.17 µM | 4.11 µM | 17.4 µM
14 | Cc1cc2c(cc1Cl)SC1=NN(C)C(N(C)C)N1S2(=O)=O (configuration not stated) | > 100 µM | > 100 µM | > 100 µM | > 100 µM | > 100 µM | > 100 µM | > 100 µM | > 100 µM | > 100 µM | > 100 µM | > 100 µM | > 100 µM | > 100 µM | > 100 µM
15 | COc1cc(/C=C2\C(=O)Nc3ccc(N(C)C)cc32)cc(OC)c1OC | 24.6 µM | > 100 µM | > 100 µM | 14.6 µM | 4.29 µM | > 100 µM | 2.75 µM | 3.67 µM | 3.89 µM | 3.1 µM | 1.41 µM | 2.5 µM | 1.47 µM | 5.75 µM
16 | COc1cc(-c2cn(-c3ccc(Cl)c(Cl)c3)c(=O)n2C(C)=O)cc(OC)c1OC | 25.3 µM | 33.2 µM | 29.3 µM | 21.3 µM | 38.1 µM | 26 µM | 12.7 µM | 11.3 µM | 6.16 µM | 8.86 µM | 14.9 µM | 13.3 µM | 13.3 µM | 30 µM
17 | COc1ccc(C2=NN(C=O)C(c3cccc(Nc4ccnc5cc(Cl)ccc45)c3)C2)cc1 (configuration not stated) | 3.71 µM | > 100 µM | 39.4 µM | 14.4 µM | 12.5 µM | 20.6 µM | 0.922 µM | 5.11 µM | 3.92 µM | 2.77 µM | 1.97 µM | 2.41 µM | 1.33 µM | 12.7 µM
18 | CCCOc1ccc2nc(NC(=O)OC)[nH]c2c1 | 1.73 µM | > 100 µM | > 100 µM | > 100 µM | > 100 µM | > 100 µM | 0.0796 µM | 0.384 µM | 0.342 µM | 0.301 µM | 0.396 µM | 0.215 µM | 0.235 µM | 2.28 µM
19 | Cn1c2c(c3ccc(Cl)c(Cl)c31)C(C#N)C1(CCNCC1)NC2=O (configuration not stated) | 2.91 µM | 13 µM | 3.61 µM | 10.7 µM | 2.9 µM | 3.31 µM | 1.5 µM | 3.1 µM | 1.13 µM | 2.94 µM | 1.42 µM | 1.63 µM | 1.55 µM | 3.42 µM
20 | Cc1cc(Cl)ccc1Nc1nc(C(F)(F)F)ccc1C(=O)N/N=C/c1ccc([N+](=O)[O-])cc1 | 4.08 µM | > 100 µM | 2.91 µM | – | 2.63 µM | 11.7 µM | 1.87 µM | 3.61 µM | 1.14 µM | 0.953 µM | 0.777 µM | 2.6 µM | 1.55 µM | > 20.5 µM
21 | COc1ccc(Cn2c3c(cc(OS(=O)(=O)C(F)(F)F)c2=O)Cc2ccccc2-3)cc1 | 26 µM and 43.9 µM | 50 µM and > 100 µM | > 100 µM | 50 µM and > 100 µM | 50 µM and > 100 µM | 50 µM and 32.1 µM | 7.3 µM | 23.7 µM | > 100 µM | 6.55 µM | 5.12 µM | 5.39 µM | 7.24 µM | 50 µM and > 100 µM
22 | CCC[n+]1cc2cc(OC)c(OC)cc2c2c1-c1cc3c(cc1C2)OCO3 | 7.11 µM | 1.68 µM | 13.6 µM | 3.57 µM | 5.78 µM | 5.77 µM | 2.09 µM | 0.254 µM | 1.63 µM | 0.211 µM | 0.955 µM | 2.06 µM | 0.0792 µM | 1.71 µM
23 | Cc1cc(S(=O)(=O)NC#N)c(S/C(=N\Nc2ccc([N+](=O)[O-])cc2)c2ccc(Cl)cc2)cc1Cl | 42.3 µM | > 100 µM | 58 µM | > 100 µM | > 100 µM | > 100 µM | 18.5 µM | 25.2 µM | 17.2 µM | 48.2 µM | 21.2 µM | > 100 µM | 21.8 µM | 89.5 µM
24 | COC(=O)c1nc(Cl)nc(Cl)c1Cl | 35.1 µM | > 100 µM | 85 µM | > 100 µM | 16.8 µM | – | – | – | – | – | – | – | – | 36.5 µM
25 | Nc1ccccc1C#C/C=C\C#Cc1ccccc1 | 18.5 µM | > 100 µM | – | 46.9 µM | 14.8 µM | 27.7 µM | 5 µM | 29.7 µM | – | 19.2 µM | 4.14 µM | 13 µM | 4.72 µM | 20.5 µM
26 | Cc1c(C(=O)NCCN2CCOCC2)cn2ncnc(Oc3ccc(NC(=O)Nc4ccc(Cl)c(C(F)(F)F)c4)cc3)c12 | 3.01 µM | – | 3.99 µM | 5.36 µM | – | 2.84 µM | 1.65 µM | – | 1.48 µM | 1.79 µM | – | 1.34 µM | 1.76 µM | 4.23 µM
